The assay addresses T1, FLT3 ITD, D835V (Homo sapiens, UniProt P36888, D835V, form not given).
T1 construct: fused on or other part: DNA tag for qPCR detection (T7 phage fusion or DNA-tagged protein from HEK-293 cells)
T1 sequence (P36888 1-993 D835V): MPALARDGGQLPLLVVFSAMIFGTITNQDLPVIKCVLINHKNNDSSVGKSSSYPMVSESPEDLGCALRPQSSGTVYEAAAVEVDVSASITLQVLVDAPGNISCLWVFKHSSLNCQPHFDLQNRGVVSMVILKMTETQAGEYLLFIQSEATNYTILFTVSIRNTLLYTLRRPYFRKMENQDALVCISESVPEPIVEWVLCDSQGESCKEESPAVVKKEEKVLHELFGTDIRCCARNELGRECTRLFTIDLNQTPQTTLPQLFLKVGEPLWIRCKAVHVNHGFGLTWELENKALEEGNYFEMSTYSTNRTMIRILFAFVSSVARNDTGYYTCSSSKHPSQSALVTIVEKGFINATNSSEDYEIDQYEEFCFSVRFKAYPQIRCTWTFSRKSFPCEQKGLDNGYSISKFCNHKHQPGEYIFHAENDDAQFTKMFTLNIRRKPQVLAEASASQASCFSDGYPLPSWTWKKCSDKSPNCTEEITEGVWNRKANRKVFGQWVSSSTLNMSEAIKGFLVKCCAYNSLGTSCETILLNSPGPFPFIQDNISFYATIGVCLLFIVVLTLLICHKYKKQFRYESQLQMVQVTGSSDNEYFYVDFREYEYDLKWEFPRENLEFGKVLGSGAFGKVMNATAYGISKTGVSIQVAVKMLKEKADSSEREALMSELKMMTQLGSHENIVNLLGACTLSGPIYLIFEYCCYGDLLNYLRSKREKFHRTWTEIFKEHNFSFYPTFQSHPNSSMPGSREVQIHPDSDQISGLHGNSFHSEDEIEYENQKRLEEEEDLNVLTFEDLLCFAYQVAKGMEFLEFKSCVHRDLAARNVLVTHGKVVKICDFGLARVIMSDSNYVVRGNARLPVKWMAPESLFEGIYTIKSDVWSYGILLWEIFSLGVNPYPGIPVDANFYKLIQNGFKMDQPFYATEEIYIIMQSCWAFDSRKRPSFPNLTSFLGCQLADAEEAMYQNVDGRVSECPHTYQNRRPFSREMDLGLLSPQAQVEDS
Nature of the assay: DiscoverX KINOMEscan competition binding, FLT3 ITD, D835V. From the text:
Kinase binding data were obtained for various exemplary compounds prepared according to Examples 1-24 using the DiscoverX KINOMVIEscan® active site-directed competition binding site-directed assay protocol described below. […] As a result, the data report thermodynamic interaction affinities (Kd values), rather than IC50 values that are dependent on ATP concentrations. The assay uses a DNA-tagged version of the protein kinase, and an immobilized ligand bound to a solid support. Compounds that directly or indirectly prevent kinase binding to the immobilized ligand reduce the amount of kinase captured on the solid support, which is detected using an ultra-sensitive qPCR method. Affinity constants reported from the assay have been reported to be independent of the immobilized ligand used that is coupled to the solid support (See supplemental information in Fabian, M. A. et. al., (2005) Nat. Biotechnol. 23, 329-336; Wodicka, L. M. et. al., (2010) Chem. Biol. 17, 1241-1249.)
Kinase-tagged T7 phage strains were prepared in an E. coli host derived from the BL21 strain. E. coli were grown to log-phase and infected with T7 phage and incubated with shaking at 32° C. until lysis. The lysates were centrifuged and filtered to remove cell debris. The remaining kinases were produced in HEK-293 cells and subsequently tagged with DNA for qPCR detection. Streptavidin-coated magnetic beads were treated with biotinylated small molecule ligands for 30 minutes at room temperature to generate affinity resins for kinase assays. The liganded beads were blocked with excess biotin and washed with blocking buffer (SeaBlock (Pierce), 1% BSA, 0.05% Tween 20, 1 mM DTT) to remove unbound ligand and to reduce non-specific binding. Binding reactions were assembled by combining kinases, liganded affinity beads, and test compounds in 1× binding buffer (20% SeaBlock, 0.17×PBS, 0.05% Tween 20, 6 mM DTT). Test compounds were prepared as 111× stocks in 100% DMSO. Kds were determined using an 11-point 3-fold compound dilution series with three DMSO control points. All compounds for Kd measurements are distributed by acoustic transfer (non-contact dispensing) in 100% DMSO. The compounds were then diluted directly into the assays such that the final concentration of DMSO was 0.9%. All reactions were performed in polypropylene 384-well plates. Each was a final volume of 0.02 mL. The assay plates were incubated at room temperature with shaking for 1 hour and the affinity beads were washed with wash buffer (1×PBS, 0.05% Tween 20). The beads were then re-suspended in elution buffer (1×PBS, 0.05% Tween 20, 0.5 μM nonbiotinylated affinity ligand) and incubated at room temperature with shaking for 30 minutes. The kinase concentration in the eluates was measured by qPCR.
Binding constants (Kds) were calculated with a standard dose-response curve using the Hill equation. The Hill Slope was set to −1. Curves were fitted using a non-linear least square fit with the Levenberg-Marquardt algorithm.

The record followed here is patent US12612410B2 (CHILDREN'S HOSPITAL MEDICAL CENTER, priority 2020, dated 2026).

`CC1(c2cn3c(-c4cccc(N[C@H]5CNC[C@@H]5F)n4)cnc3cn2)CC1` [Compound 1, N-((3S,4S)-4-fluoropyrrolidin-3-yl)-6-(6-(1-methylcyclopropyl)imidazo[1,2-a]pyrazin-3-yl)pyridin-2-amine]: the Kd (in general, the constant that tells how readily two partners part at equilibrium) is 3 pM.

On to `CC1(c2cn3c(-c4cccc(N[C@@H]5CCNC5)n4)cnc3cn2)CC1` [Compound 3, (R)-6-(6-(1-methylcyclopropyl)imidazo[1,2-a]pyrazin-3-yl)-N-(pyrrolidin-3-yl)pyridin-2-amine], for which the affinity, expressed as Kd, was 4 pM.

The compound `CC1(c2cn3c(-c4cccc(N[C@H]5CNCC56CC6)n4)cnc3cn2)CC1` [Compound 5, (R)-N-(6-(6-(1-methylcyclopropyl)imidazo[1,2-a]pyrazin-3-yl)pyridin-2-yl)-5-azaspiro[2.4]heptan-7-amine] had a dissociation constant (Kd) of 5 pM. The Kd values of the last two compounds are within 1.5-fold of each other.

On to `FC(F)(F)C1(c2cn3c(-c4cccc(N[C@@H]5CCNC5)n4)cnc3cn2)CC1` [Compound 10, (R)-N-(pyrrolidin-3-yl)-6-(6-(1-(trifluoromethyl)cyclopropyl)imidazo[1,2-a]pyrazin-3-yl)pyridin-2-amine], for which the Kd is 11 pM.

Turning to `FC(F)c1cn2c(-c3cccc(N[C@H]4CNC[C@@H]4F)n3)cnc2cn1` [Compound 16, 6-(6-(difluoromethyl)imidazo[1,2-a]pyrazin-3-yl)-N-((3S,4S)-4-fluoropyrrolidin-3-yl)pyridin-2-amine], binding was put at a Kd of 6 pM.

Regarding `FC(F)c1cn2c(-c3cccc(N[C@H]4CNCC[C@@H]4F)n3)cnc2cn1` [Compound 25, 6-(6-(difluoromethyl)imidazo[1,2-a]pyrazin-3-yl)-N-((3S,4S)-4-fluoropiperidin-3-yl)pyridin-2-amine], the Kd is 9 pM.

`CC(C)(O)c1cn2c(-c3cccc(N[C@@H]4CCCNC4)n3)cnc2cn1` [Compound 30, (R)-2-(3-(6-(piperidin-3-ylamino)pyridin-2-yl)imidazo[1,2-a]pyrazin-6-yl)propan-2-ol]: binding was characterised by a dissociation constant (Kd) of 140 pM.

`CC(C)(O)c1cn2c(-c3cccc(N[C@H]4CNCC[C@@H]4F)n3)cnc2cn1` [Compound 31, 2-(3-(6-(((3S,4S)-4-fluoropiperidin-3-yl)amino)pyridin-2-yl)imidazo[1,2-a]pyrazin-6-yl)propan-2-ol] yielded a Kd of 44 pM.

In the case of `FC(F)(F)COc1cn2c(-c3cccc(N[C@@H]4CCNC4)n3)cnc2cn1` [Compound 38, (R)-N-(pyrrolidin-3-yl)-6-(6-(2,2,2-trifluoroethoxy)imidazo[1,2-a]pyrazin-3-yl)pyridin-2-amine], the equilibrium dissociation constant (Kd) came to 26 pM.

`F[C@H]1CNC[C@@H]1Nc1cccc(-c2cnc3cnc(C4CC4)cn23)n1` [Compound 50, 6-(6-cyclopropylimidazo[1,2-a]pyrazin-3-yl)-N-((3S,4S)-4-fluoropyrrolidin-3-yl)pyridin-2-amine] yielded a Kd of 3 pM.

With `Cn1cc(-c2cn3c(-c4cccc(N[C@H]5CNC[C@@H]5F)n4)cnc3cn2)cn1` [Compound 52, N-((3S,4S)-4-fluoropyrrolidin-3-yl)-6-(6-(1-methyl-1H-pyrazol-4-yl)imidazo[1,2-a]pyrazin-3-yl)pyridin-2-amine], the affinity, expressed as Kd, was 3 pM.
